Here are results for one compound from patent US20160367515A1, “Improved delivery of poorly water soluble drugs with aphafetoprotein stabilized with metal ions” (Oy Safemed Ltd., priority 2013, published 2016).

For series [1], the system named is normal CBA mice splenocytes. As to the kind of experiment: Unspecific toxicity against normal splenocytes, trypan blue staining. As to conditions: 48 h, standalone.
Protocol: Zn-rhAFP was prepared in a molecular ratio Zn:rhAFP=4:1. Viable cells were visualized by trypan blue staining. The data are expressed as percentage of viable cells in experimental cell cultures relative to untreated control. Mean of three independent experiments is shown.
Viable cells were visualized by trypan blue staining.
Series [2] concerns NF-κB p65. As to the kind of experiment: Immunofluorescence of activated NF-κB p65 nuclear translocation in MCF-7 cells. Format: cell-based, human. As to conditions: MCF-7, 2 h treatment. The procedure:
The cells were incubated with paclitaxel (10 μM) with addition of Zn-rhAFP (3.0 μM) and/or curcumin (3.0 μM) for 2 h and then assessed for localization of p65 by immunocytochemistry. Activated […] (p65) was detected by treatment of the cells with phospho […] p65 rabbit polyclonal antibody (Cell signaling technologies, USA) followed by secondary goat anti-rabbit Ab-Alexa594 red (Molecular Probes, USA). Cells were visualized at magnification ×400 by fluorescent microscope Axioplan; Zeiss (Germany) equipped with corresponding color filter kits.
The relative amount of p65 in the cytosol and nucleus of the cells was assessed by ImageJ software and was taken as 100% in the control (cytosol+nucleus). Total amount of activated p65 in control untreated cells was taken as 100%. The experimental data are represented as percentage of control±SD from three independent calculations in various observation fields.
MCF-7 cells were seeded on the microscopic plates Lab-Tek™ Chamber Slides (Thermo Fisher Scientific-Nunc, Germany) and cultivated at 37° C. at 5% CO2 atmosphere for 48 h to allow cell adaptation to reach 80% confluence. To test effects of chemotherapeutic preparations on the activation and translocation of NF-κB, cells were treated for 2 h with Ptx (10 nM), curcumin (30 μM); Zn-rhAFP (1.4 μM), or their combination Zn-rhAFP/Ptx/Cur, after which they were fixed with 100% ice-cold acetone. Control cells were incubated without additions and their NF-κB content was taken as 100%. Activated NF-κB was detected by treatment of the cells with phospho NF-κB p65 rabbit polyclonal antibody (Cell signaling technologies, USA) followed by the secondary goat anti-rabbit antibodies Ab-Alexa594 (Molecular Probes, USA). Nuclei were visualized by staining with DAPI (Molecular probes, USA). Cells were visualized at magnification ×400 by fluorescent microscope Axioplan (Zeiss, Germany) equipped with corresponding color filter kits. Distribution throughout the cell of the activated p65 was assessed by the ImageJ software and was taken as 100% in the control samples (cytosol+nucleus).

Series [3] relates to breast cancer cells MCF-7. As to the kind of experiment: Microscopic evaluation (DAPI, cell count by ImageJ) of viability and apoptosis of MCF-7 cells. The format is cell-based, human. As to conditions: MCF-7, 48 h. The procedure: Concentrations of the compounds were: rhAFP: 3.0 μM, Ptx: 10 μM. Incubation time was 48 h. Patterns on the top (A): magnification ×100; bottom (B): magnification ×400. Cell nuclei were stained with DAPI and visualized with a fluorescent microscope Axioplan, Zeiss equipped with corresponding color filter kits. Apoptotic nuclei at s panel B are shown by arrows. […] Total number of cells in the control wells was taken as 100%. The average data for five wells±mean square deviation are shown.
rhAFP/Ptx equimolar complex was also tested for its growth suppressive activity against tumor cells in vitro. […] Apoptotic cells with condensed chromatin due to rhAFP/Ptx treatments are shown at FIG. 3B with arrows.
MCF-7 cells were seeded onto the microscopic plates Lab-Tek™ Chamber Slides (Thermo Fisher Scientific-Nunc, Germany) for 48 h to reach of 80% confluence and thereafter were subjected to 48-h treatments with Ptx dissolved in DMSO (10 nM), Zn-rhAFP (1.4 μM), or their combination Zn-rhAFP/Ptx (1.4 μM/10 nM). Similarly, the tests had been performed with non-glycosylated rhAFPo species. Thereafter the cells were fixed with 100% ice-cold acetone and stained with DAPI (Molecular probes, USA). Control cells were incubated without additions. […] The quantity of the cells in the various experimental wells in the selected fields of view was assessed by using ImageJ software. […]

Turning to `CC(=O)O[C@H]1C(=O)[C@@]2(C)[C@H]([C@H](OC(=O)c3ccccc3)[C@]3(O)C[C@H](OC(=O)[C@H](O)[C@@H](NC(=O)c4ccccc4)c4ccccc4)C(C)=C1C3(C)C)[C@]1(OC(C)=O)CO[C@@H]1C[C@@H]2O` [Ptx, paclitaxel], the “cytotoxic effect against normal splenocytes” value in series [1] is reported as “strong dose-dependent growth suppression”. For the same compound, in series [2], the “effect on activated p65 (RelA) in the cell nucleus” value is recorded as “significant enhance of activated p65 localized in the nuclear region”. In addition, the viable cell count in series [3] (FIG. 3: rhAFP 3.0 μM, Ptx 10 μM) is given as 54 % of control. Further, the cell death in series [3] (Ptx 10 nM, Zn-rhAFP 1.4 μM) was 55%.
